Test results published in patent publication US11299496B2, “Ligands for alpha-7 nicotinic acetylcholine receptors and methods of treating neurological and inflammatory conditions” (Northeastern University, priority 2014, dated 2022).

Tests used:
CFA-injected mice = assay: Complete Freund's Adjuvant test (mechanical allodynia, thermal hyperalgesia); assay type: in vivo, mouse
Description: Mice were injected with 20 μl of CFA (0.5 mg/ml of heat killed Mycobacterium tuberculosis, Sigma) in the intraplantar region of the right hindpaw. Paw diameter and thermal hyperalgesia (see paw withdrawal test) were measured 3 days after CFA injection. In separate groups of mice that received CFA, mechanical allodynia thresholds were determined according to previously published method (Ondachi et. al. J Med Chem. 2014 Feb. 13; 57(3):836-48. doi: 10.1021/jm401602p). Mice were placed in a plexiglas cage with mesh metal flooring and allowed to acclimate for 30 min before testing. A series of calibrated von Frey filaments (Stoelting, Wood Dale, Ill.) with logarithmically incremental stiffness ranging from 2.83 to 5.88 expressed as log 10 of [10 £ force in (mg)] were applied to the paw with a modified up-down method. In the absence of a paw withdrawal response to the initially selected filament, a thicker filament corresponding to a stronger stimulus was presented. In the event of paw withdrawal, the next weaker stimulus was chosen. Each hair was presented perpendicularly against the paw, with sufficient force to cause slight bending, and held 2-3 s. The stimulation of the same intensity was applied 5 times to the hindpaw at intervals of a few seconds. Three or more responses out of five stimulations were coded as a positive response. Once a positive response was detected, sequentially lower weight filaments were used to assess the sensory threshold for each paw. The allodynia scores were recorded in a blinded fashion.
A similar sequence of drug treatment described for the formalin testing was used to test the antinociceptive effects of alpha-7 nAChRs ago-PAMs in the CFA model of inflammatory pain. […] Paw diameter and mechanical allodynia will be measured 3 days after CFA injection. We assessed the dose-response relationship of […]7 nAChRs ago-PAMs (4 doses) in reversing CFA-induced mechanical allodynia and paw edema.

normal mice = assay: Morris water maze memory test; assay type: in vivo, mouse
Description: This test was carried out in normal mice using a Morris water maze.

Structure (SMILES): NS(=O)(=O)c1ccc2c(c1)[C@H]1C=CC[C@H]1[C@@H](c1ccc(Br)cc1)N2 [Compound 1, (3aR,4S,9bS)-4-(4-bromophenyl)-3a,4,5,9b-tetrahydro-3H-cyclopenta[c]quinoline-8-sulfonamide]
- antiallodynic and antihyperalgesic effects after MLA (CFA-injected mice; data not shown): MLA blocked the effects
- duration of antiallodynic effect (CFA-injected mice; i.p., dose dependent): 180 min
- duration of antihyperalgesic effect (CFA-injected mice; mouse, in vivo): 60 min
- memory defects in scopolamine-treated mice (normal mice; FIG. 6): dose dependently reversed the memory defects
- latency to find the platform, compound given alone (normal mice; normal mice): reduced the latency for the mice to find the platform
